From article PMC4894409 (Scientific Reports, 2015)
Counter-ions that a name gives are not always drawn. Like-named read-outs stand apart in the source and are kept apart here.

Experiments:
mice [1] = experiment: Forced swimming (FS) test; type: in vivo, Male Swiss mice
Protocol: (§1) Male Swiss mice (weighing between 25–30 g; 6–8 weeks old), provided by Central Animal House of the Federal University of Goiás, were used in all behavioural models. The experimental animals were kept in an intra-laboratory facility cage (32 × 18 × 16 cm) under controlled environmental conditions (23 ± 1 °C, 12 hr light-dark cycle) with access to food and water ad libitum. The experimental protocols (number 104/08) were approved by Ethical Committee of Federal University of Goiás in accordance to the international laws on the care and use of laboratory animals.
In the FS model, mice were randomly divided into 5 groups [control (vehicle), 3 different doses of OAD and IMI]. Mice were exposed to a modified version of FS test[48] after oral administration of vehicle, OAD (5, 10 or 20 mg/kg) or IMI 15 mg/kg. FS apparatus is a cylindrical water container (42 cm in height, 18 cm in diameter) filled with water up to 30 cm (total volume ( [drawing 1] of 7635.06 cm^3 at 24 ± 2 °C). In this model, the initial escape-directed behaviour like swimming and climbing by mouse are generally followed with a relatively passive and immobile posture. The container was cleaned with 10% ethanol solution prior to the exposure of naïve mouse. This test session (6-min duration) was videotaped and the swimming and immobility time was later scored and analyzed.

mice [2] = experiment: FS test after AMPT, PCPA, PRAZ or WAY pretreatment (mechanism of antidepressant-like effect of D1); type: in vivo, Male Swiss mice; conditions: AMPT 100, PCPA 100, PRAZ 1 or WAY 0.3 mg/kg i.p. + Vehicle versus SAL + Vehicle, p > 0.05
Protocol: Mice were pretreated (i.p) with saline solution or AMPT 100 mg/kg (catecholamine depletor) 4 h prior to the oral administration of vehicle 10 mL/kg or D1 5 mg/kg. […] In a separate experiment, pretreatment (i.p) of mice with saline solution or PCPA 100 mg/kg (serotonin depletor) for four consecutive days prior to oral administration of vehicle or D1 5 mg/kg was used to investigate effect of serotonin depletion on antidepressant-like activity of this OAD. […] In all the four experiments, oral administration of vehicle or D1 5 mg/kg was followed by FS test (60 min interval between p.o. treatment and behavioural testing).

mice [3] = experiment: Open field (OF) test; type: in vivo, Male Swiss mice; conditions: for other parameters of the OF test: 5, 10, 20 mg/kg p.o., parameters not named as changed, p > 0.05
Protocol: as §1
In the OF, animals were randomly divided into six groups [control (vehicle), 3 different doses of OAD, DZP 1 or 5 mg/kg]. Animals were treated with vehicle, OAD (5, 10 or 20 mg/kg, p.o), DZP (1 or 5 mg/kg, p.o) as described in our previous work[7][49], and placed in a circular open field [base area ( [drawing 2] ) = 62.80 cm^2 which is divided into 8 equal sectors enclosed in a 50 cm high wooden wall]. The test session (5-min duration) was videotaped in a sound-proof experimental room. Parameters like total crossing, freezing time, number of grooming and rearing activity, crossing at the centre and time spent at the centre of the open field were observed and scored.

[4] = test system: dopamine, noradrenaline and serotonin levels; conditions: cited from earlier work
5-HT1A receptor = biological target: T1, 5-HT1A receptor (Mus musculus, UniProt Q64264); experiment: [35S]GTPγS binding to mice hippocampal membranes; type: biochemical; conditions: for Emax: read-out: Intrinsic activity (Emax ± SEM in %)
T1 construct: The hippocampi of mice were dissected and homogenized in 5 volumes of ice-cold buffer; from tissue; host or cells: mouse hippocampus membranes
T1 sequence (Q64264 1-421): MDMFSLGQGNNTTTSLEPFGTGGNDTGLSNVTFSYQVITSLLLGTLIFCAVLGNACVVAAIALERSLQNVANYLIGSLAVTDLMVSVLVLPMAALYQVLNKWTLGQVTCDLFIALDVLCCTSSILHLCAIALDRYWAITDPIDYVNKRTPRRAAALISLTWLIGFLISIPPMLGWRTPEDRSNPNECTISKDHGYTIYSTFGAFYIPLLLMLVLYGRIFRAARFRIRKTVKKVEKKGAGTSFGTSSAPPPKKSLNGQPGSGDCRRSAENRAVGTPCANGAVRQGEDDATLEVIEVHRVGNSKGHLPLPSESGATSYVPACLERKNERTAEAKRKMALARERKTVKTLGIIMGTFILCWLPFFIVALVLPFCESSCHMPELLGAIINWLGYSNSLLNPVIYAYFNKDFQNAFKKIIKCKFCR
Protocol: The hippocampi of mice were dissected and homogenized in 5 volumes of ice-cold buffer (25 mM Tris-HCl, 0.5 mM dithiothreitol, and 0.5 mM EGTA, pH 7.4). The homogenate was centrifuged (1,000 × g for 5 min at 4 °C) and the resultant supernatant was removed. The remaining pellet was resuspended in buffer, homogenized, and centrifuged. The two supernatants obtained were combined and centrifuged at […] at 4 °C and the pellets were resuspended in membrane preparation buffer. The volumes were adjusted prior to the determination of protein concentration by Bradford method[56] and stored at −80 °C until required. […] The reactions were initiated by the addition of 25 μl [^35S]-GTPγS, followed by a 20 min incubation at 20 °C. The reactions were terminated by rapid filtration. The filters were placed in liquid scintillation cocktail in counting vials. The liquid scintillation spectroscopy was used to measure the radioactivity bound to the filter paper after 10 hour.

[5] = previous study; cited from earlier work
[6] = 100 mg/kg i.p. for four consecutive days
[7] = 20 mg/kg p.o., vs vehicle, p < 0.05

Q: With `CN(C)CCCN1c2ccccc2CCc2ccccc21` [IMI, imipramine, reference compound] as the compound, how does the “effect in FS test” value (mice [1]; 15 mg/kg p.o.) read?
A: The value was “antidepressant-like effect”.

Q: With `COc1cc2nc(N3CCN(C(=O)c4ccco4)CC3)nc(N)c2cc1OC` [PRAZ, prazosin, reference compound] as the compound, how does the “animal behaviour (swimming time) after pretreatment prior to vehicle” value (“animal behaviour (swimming time)” for short) (mice [2]) read?
A: Its value is “did not alter animal behaviour”.

Q: With `CN1C(=O)CN=C(c2ccccc2)c2cc(Cl)ccc21` [DZP, Diazepam, reference compound] as the compound, how does the “effect in the OF test” value (mice [3]; 1 mg/kg p.o.) read?
A: The value was “anxiolytic”.

Q: What about the “effect in the OF test” value (mice [3]; 5 mg/kg p.o.) of the same compound?
A: The value was “sedative like effect”.

Q: For `COc1ccccc1N1CCN(CCN(C(=O)C2CCCCC2)c2ccccn2)CC1` [WAY, N-{2-[4-(2-methoxyphenyl)-1-piperazinyl]ethyl}-N-2-pyridinylcyclohexane carboxamide, reference compound], which “animal behaviour (swimming time)” value (mice [2]) is on record?
A: The value was “did not alter animal behaviour”.

Q: With `N[C@@H](Cc1ccc(Cl)cc1)C(=O)O` (racemic) [PCPA, p-chlorophenylalanine] as the compound, how does the “animal behaviour (swimming time)” value (mice [2]) read?
A: Its value is “did not alter animal behaviour”.

Q: What about the “depletion of endogenous serotonin content” value [4, 6] of the same compound?
A: The value was “about 60%”.

Q: And the “noradrenaline or dopamine levels” value [4, 6]?
A: The value was “without altering”.

Q: For `COC(=O)/C=C/C(=O)O[C@H]1CC[C@]2(C)[C@H]3CC=C4[C@@H]5CC(C)(C)CC[C@]5(C(=O)O)CC[C@@]4(C)[C@]3(C)CC[C@H]2C1(C)C` [D3, Oleanolic acid methyl fumarate], which “number of grooming in the OF” value (mice [3]; 10 mg/kg p.o., vs vehicle) is on record?
A: Its value is “reduction”.

Q: What about the “freezing time in the OF” value (mice [3]; 20 mg/kg p.o., vs vehicle) of the same compound?
A: Its value is “increase”.

Q: And the “time spent at the centre of the OF” value (mice [3]; 20 mg/kg p.o., vs vehicle)?
A: Its value is “increase”.

Q: And the “other parameters of the OF test” value (mice [3])?
A: Its value is “not altered”.

Q: What about the “immobility time in the FS test” value (mice [1]; 5, 10, 20 mg/kg p.o., ANOVA) of the same compound?
A: Its value is “did not elicit significant effect”.

Q: And the “swimming time in the FS test” value (mice [1]; 5, 10, 20 mg/kg p.o., ANOVA)?
A: Its value is “did not elicit significant effect”.

Q: What does the source list for `CCCN(CCC)C1CCc2cccc(O)c2C1` (single isomer, unassigned; (+)) [(+) 8-OH-DPAT, 8-OH-DPAT]?
A: EC50 (5-HT1A receptor): 158 nM; Emax (5-HT1A receptor): 94 ± 2%

Q: For Oleanolic acid ethyl fumarate [D4], which “freezing time in the OF” value (mice [3]; 20 mg/kg p.o., vs vehicle) is on record?
A: Its value is “increase”.

Q: And the “total crossing in the OF” value (mice [3]; 20 mg/kg p.o., vs vehicle)?
A: The value was “reduction”.

Q: What about the “swimming time in the FS test” value (mice [1]; [7]) of the same compound?
A: Its value is “significant reduction”.

Q: And the “immobility time in the FS test” value (mice [1]; 5, 10, 20 mg/kg p.o., ANOVA)?
A: Its value is “without changes”.

Q: With `O=C1CC2(CCCC2)CC(=O)N1CCCCN1CCN(c2ncccn2)CC1` [Buspirone, buspirone] as the compound, how does the EC50 (5-HT1A receptor; mice hippocampal membranes, read-out: Agonist potency (pEC50 ± SEM) (converted)) read?
A: The EC50 was 251 nM.

Q: And the Emax (5-HT1A receptor; percentage of that produced by 10 μM (+)8-OH-DPAT)?
A: The Emax was 33 ± 1%.

Q: Which results are given for `CC(N)(Cc1ccc(O)cc1)C(=O)O` (stereo not drawn) [AMPT, α-methyl-p-tyrosine]?
A: animal behaviour (swimming time) after pretreatment prior to vehicle (mice [2]): did not alter animal behaviour; levels of serotonin ([4]; mice): without affecting; reduction of noradrenaline levels ([4]; mice): 53%; reduction of dopamine levels ([4]; mice, tyrosine hydroxylase inhibitor): 57%

Q: Which “dependence of antidepressant-like effect on MAO activity” value [5] does the source give for `CC1(C)CC[C@]2(C(=O)O)CC[C@]3(C)C(=CC[C@@H]4[C@@]5(C)CC[C@H](O)C(C)(C)[C@@H]5CC[C@]43C)[C@@H]2C1` [OA, Oleanolic acid] here?
A: The value was “independent of MAO activity”.

Q: And the “effect of PCPA, AMPT, NAN, PRAZ and WAY100635 on antidepressant-like effect” value [5]?
A: Its value is “blockade”.

Q: What does the source list for `C=C(C)C(=O)O[C@H]1CC[C@]2(C)[C@H]3CC=C4[C@@H]5CC(C)(C)CC[C@]5(C(=O)O)CC[C@@]4(C)[C@]3(C)CC[C@H]2C1(C)C` [D2, Oleanolic acid methacrylate]?
A: total crossing in the OF (mice [3]; 20 mg/kg p.o., vs vehicle): increase; other parameters of the OF test (mice [3]): not altered; time spent at the centre of the OF (mice [3]; 5, 10 and 20 mg/kg p.o., vs vehicle): increase; crossing at the centre of the OF (mice [3]; 10 and 20 mg/kg p.o., vs vehicle): increase; immobility time in the FS test (mice [1]; [7]): reduction; swimming time in the FS test (mice [1]; [7]): significant increase
